Experimental data published in US7265147B2, “3,6-disubstituted azabicyclo [3.1.0]hexane derivatives useful as muscarinic receptor antagonists” (Ranbaxy Laboratories Limited, priority 2002, dated 2007).
Like-named read-outs stand apart in the source and are kept apart here.

Assays:
M2 muscarinic receptor = target: T1, M2 muscarinic receptor (Rattus norvegicus, UniProt P10980); assay: Radioligand binding assay, [3H]-N-methylscopolamine, rat heart membranes
T1 construct: Submandibular glands and heart were isolated and placed in ice cold homogenising buffer; from tissue; host or cells: rat heart membrane homogenate
T1 sequence (P10980 1-466): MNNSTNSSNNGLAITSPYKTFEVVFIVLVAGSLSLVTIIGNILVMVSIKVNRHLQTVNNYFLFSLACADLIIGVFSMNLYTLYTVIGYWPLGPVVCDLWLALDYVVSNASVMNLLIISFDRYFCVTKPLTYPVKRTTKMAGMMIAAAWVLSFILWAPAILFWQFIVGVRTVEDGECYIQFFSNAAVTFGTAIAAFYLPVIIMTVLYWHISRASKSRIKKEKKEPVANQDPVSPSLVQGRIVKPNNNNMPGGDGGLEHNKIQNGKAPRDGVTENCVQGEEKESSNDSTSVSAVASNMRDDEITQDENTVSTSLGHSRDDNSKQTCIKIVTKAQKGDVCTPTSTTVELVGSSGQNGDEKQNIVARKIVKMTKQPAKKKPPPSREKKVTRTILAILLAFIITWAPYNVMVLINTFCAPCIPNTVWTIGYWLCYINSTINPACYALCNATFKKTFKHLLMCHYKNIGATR

M3 muscarinic receptor [1] = target: T2, M3 muscarinic receptor (Rattus norvegicus, UniProt P08483); settings: for Ki: read-out: Receptor Binding Assay Ki (nM) M3
T2 sequence (P08483 whole entry): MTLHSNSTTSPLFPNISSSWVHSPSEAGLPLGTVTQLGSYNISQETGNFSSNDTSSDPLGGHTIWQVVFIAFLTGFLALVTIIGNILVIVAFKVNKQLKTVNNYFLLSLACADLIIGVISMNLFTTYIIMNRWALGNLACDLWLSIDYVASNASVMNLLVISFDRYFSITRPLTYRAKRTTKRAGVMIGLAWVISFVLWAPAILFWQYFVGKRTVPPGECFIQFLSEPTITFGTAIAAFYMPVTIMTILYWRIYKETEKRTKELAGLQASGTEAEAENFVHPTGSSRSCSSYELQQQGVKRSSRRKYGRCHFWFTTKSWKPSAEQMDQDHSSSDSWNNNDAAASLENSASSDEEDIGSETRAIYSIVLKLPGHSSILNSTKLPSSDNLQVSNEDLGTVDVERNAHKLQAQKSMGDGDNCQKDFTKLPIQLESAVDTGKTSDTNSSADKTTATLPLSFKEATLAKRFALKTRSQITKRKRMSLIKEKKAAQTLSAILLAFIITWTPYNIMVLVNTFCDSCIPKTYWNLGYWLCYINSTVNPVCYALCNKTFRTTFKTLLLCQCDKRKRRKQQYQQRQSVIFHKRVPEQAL

M3 muscarinic receptor [2] = target: T2, M3 muscarinic receptor; assay: biochemical
[3] = read-out: Receptor Binding Assay Ki (nM) M2

| Compound | Ki (M2 muscarinic receptor; [3]) [nM] | Selectivity (M2/M3) (M3 muscarinic receptor [1]) | Ki (M3 muscarinic receptor [1]) [nM] | Ki (M2 muscarinic receptor) [nM] | Ki (M3 muscarinic receptor [2]) [nM] |
| --- | --- | --- | --- | --- | --- |
| 4-[(1S,5R)-2-methyl-3-azabicyclo[3.1.0]hex-3-yl]-but-2-ynyl-2-cyclohexyl-2-hydroxyphenylacetate [Compound No. 18] | 185 | 7.708 | 24 |  |  |
| 4-[(1S,5R)-2-methyl-3-azabicyclo[3.1.0]hex-3-yl]-but-2-ynyl-2-cyclopentyl-2-hydroxyphenylacetate [Compound No. 17] | 142 | 3.641 | 39 |  |  |
| O=C(NCC#CCN1C[C@H]2C[C@H]2C1)C(O)(c1ccccc1)C1CCCCC1 (stereo partly drawn) [Compound No. 9, N-{4-[(1R, 5S)-3-azabicyclo[3.1.0]-hex-3-yl]but-2-ynyl}-2-hydroxy-2-cyclohexyl-2-phenylacetamide] |  |  |  | 3580 |  |
| O=C(NCC#CCN1C[C@H]2C[C@H]2C1)C(O)(c1ccccc1)C1CCCC1 (stereo partly drawn) [Compound No. 10, N-{4-[(1R, 5S)-3-azabicyclo[3.1.0]-hex-3-yl]but-2-ynyl}-2-hydroxy-2-cyclopentyl-2-phenylacetamide] |  | 1.28 |  | 425 | 330 |
| O=C(NCC#CCN1C[C@H]2C[C@H]2C1)C(O)(c1ccccc1)c1ccccc1 [Compound No. 11, N-{4-[(1R, 5S)-3-azabicyclo[3.1.0]-hex-3-yl]but-2-ynyl}-2-hydroxy-2,2-diphenylacetamide] |  |  |  | 639 |  |
| O=C(NCC#CCN1C[C@H]2C[C@H]2C1)C(O)(c1ccc(F)cc1)c1ccc(F)cc1 [Compound No. 12, N-{4-[(1R,5S)-3-azabicyclo[3.1.0]-hex-3-yl]-but-2-ynyl}2-hydroxy-bis(4-florophenyl)acetamide] |  |  |  | 736 |  |
